Assay results published in the NIST ThermoML archive (doi:10.1016/j.jct.2012.08.030).

What was measured:
[1] = 101.3 kPa, Liquid; for speed of sound: Sing-around technique in a fixed-path interferometer; for mass density: Vibrating tube method
[2] = refractive index (Na D-line) (dimensionless); conditions: 101.33 kPa, Liquid, Standard Abbe refractometry
[3] = xn = mol fraction of the nth substance listed; conditions: 101.3 kPa, Liquid, x2 = 0; for speed of sound: Sing-around technique in a fixed-path interferometer; for mass density: Vibrating tube method
[4] = refractive index (Na D-line) (dimensionless); xn = mol fraction of the nth substance listed; conditions: 101.3 kPa, Liquid, Standard Abbe refractometry, x2 = 0

CO [methanol]
Conditions | mass density, [1] [kg/m3] | refractive index, [2] | speed of sound, [1] [m/s]
298.15 K | 787.405 | 1.3272 | 1104.3
303.15 K | 782.688 | 1.32552 | 1088.3
308.15 K | 777.941 | 1.32362 | 1072
313.15 K | 773.168 | 1.32171 | 1055.9

CC(C)O [propan-2-ol] + CCCCn1cc[n+](C)c1.COS(=O)(=O)[O-]
Conditions | mass density, [3] [kg/m3] | refractive index, [4] | speed of sound, [3] [m/s]
298.15 K | 781.123 | 1.37527 | 1138.7
303.15 K | 776.845 | 1.37314 | 1121.4
308.15 K | 772.487 | 1.37093 | 1103.9
313.15 K | 768.053 | 1.3687 | 1086.6

CO [methanol] + CCCCn1cc[n+](C)c1.COS(=O)(=O)[O-]
Conditions | mass density, [3] [kg/m3] | refractive index, [4] | speed of sound, [3] [m/s]
298.15 K | 787.405 | 1.3272 | 1104.3
303.15 K | 782.688 | 1.32552 | 1088.3
308.15 K | 777.941 | 1.32362 | 1072
313.15 K | 773.168 | 1.32171 | 1055.9

CCCCO [butan-1-ol]
Conditions | mass density, [1] [kg/m3] | refractive index, [2] | speed of sound, [1] [m/s]
298.15 K | 805.93 | 1.39747 | 1239.3
303.15 K | 802.088 | 1.39549 | 1222.9
308.15 K | 798.214 | 1.39342 | 1206.3
313.15 K | 794.301 | 1.39138 | 1189.7

CCCCn1cc[n+](C)c1.COS(=O)(=O)[O-] [1-butyl-3-methylimidazolium methyl sulfate]
Conditions | mass density, [1] [kg/m3] | refractive index, [2] | speed of sound, [1] [m/s]
298.15 K | 1212.06 | 1.47824 | 1654.6
303.15 K | 1208.7 | 1.47704 | 1642.2
308.15 K | 1205.35 | 1.47577 | 1630
313.15 K | 1202.01 | 1.47443 | 1617.9

CCCCO [butan-1-ol] + CCCCn1cc[n+](C)c1.COS(=O)(=O)[O-]
Conditions | mass density, [3] [kg/m3] | refractive index, [4] | speed of sound, [3] [m/s]
298.15 K | 805.93 | 1.39747 | 1239.3
303.15 K | 802.088 | 1.39549 | 1222.9
308.15 K | 798.214 | 1.39342 | 1206.3
313.15 K | 794.301 | 1.39138 | 1189.7

CCCO [propan-1-ol]
Conditions | mass density, [1] [kg/m3] | refractive index, [2] | speed of sound, [1] [m/s]
298.15 K | 800.008 | 1.38334 | 1205.9
303.15 K | 795.97 | 1.38131 | 1189.3
308.15 K | 791.892 | 1.37926 | 1172.4
313.15 K | 787.772 | 1.37722 | 1155.5

CC(C)O [propan-2-ol]
Conditions | mass density, [1] [kg/m3] | refractive index, [2] | speed of sound, [1] [m/s]
298.15 K | 781.123 | 1.37527 | 1138.7
303.15 K | 776.845 | 1.37314 | 1121.4
308.15 K | 772.487 | 1.37093 | 1103.9
313.15 K | 768.053 | 1.3687 | 1086.6

CCCO [propan-1-ol] + CCCCn1cc[n+](C)c1.COS(=O)(=O)[O-]
Conditions | mass density, [3] [kg/m3] | refractive index, [4] | speed of sound, [3] [m/s]
298.15 K | 800.008 | 1.38334 | 1205.9
303.15 K | 795.97 | 1.38131 | 1189.3
308.15 K | 791.892 | 1.37926 | 1172.4
313.15 K | 787.772 | 1.37722 | 1155.5
